In patent publication US12077503B2, “Substituted cyclic amides and their use as herbicides” (FMC CORPORATION, priority 2015, dated 2024):

Tests used:
Format in all cases: in vivo
[1] = test system: barnyardgrass (Echinochloa crus-galli); assay: Test G Pre-Emergence Protocol; conditions: Echinochloa crus-galli, pre-emergence, 312 h, evaluated after 13 days
Procedure, shortened: (§1)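 Seeds were sown in standard soil and kept one day in a glasshouse (24/16° C day/night, 14 h light, 65% humidity), then sprayed with compound in acetone/water (50:50) containing 0.5% Tween 20 at 15.625, 62.5 or 250 g/ha. Damage was scored after 13 days (0 = none, 100 = total).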

[2] = test system: corn (Zea mays); assay: Test G Pre-Emergence Protocol; conditions: Zea mays, pre-emergence, 312 h, evaluated after 13 days
Procedure, shortened: as §1

[3] = test system: giant foxtail (Setaria faberi); assay: Test G Pre-Emergence Protocol; conditions: Setaria faberi, pre-emergence, 312 h, evaluated after 13 days
Procedure, shortened: as §1

[4] = test system: ivy-leaved morning glory (Ipomoea hederacea); assay: Test G Pre-Emergence Protocol; conditions: Ipomoea, pre-emergence, 312 h, evaluated after 13 days
Procedure, shortened: as §1

[5] = test system: redroot pigweed (Amaranthus retroflexus); assay: Test G Pre-Emergence Protocol; conditions: Amaranthus retroflexus, pre-emergence, 312 h, evaluated after 13 days
Procedure, shortened: as §1

[6] = test system: velvetleaf (Abutilon theophrasti); assay: Test G Pre-Emergence Protocol; conditions: Abutilon theophrasti, pre-emergence, 312 h, evaluated after 13 days
Procedure, shortened: as §1

[7] = test system: barnyardgrass (Echinochloa crus-galli); assay: Test G Post-Emergence Protocol; conditions: Echinochloa crus-galli, post-emergence, 312 h
Procedure, shortened: (§2)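 A glasshouse post-emergence test: 8-day-old plants sprayed at 15.625, 62.5 or 250 g/ha, then grown at 24/16 °C day/night with 14 h light and 65% humidity. Damage rated 13 days later, 0–100.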

[8] = test system: corn (Zea mays); assay: Test G Post-Emergence Protocol; conditions: Zea mays, post-emergence, 312 h
Procedure, shortened: as §2

[9] = test system: giant foxtail (Setaria faberi); assay: Test G Post-Emergence Protocol; conditions: Setaria faberi, post-emergence, 312 h
Procedure, shortened: as §2

[10] = test system: ivy-leaved morning glory (Ipomoea hederacea); assay: Test G Post-Emergence Protocol; conditions: Ipomoea, post-emergence, 312 h
Procedure, shortened: as §2

[11] = test system: redroot pigweed (Amaranthus retroflexus); assay: Test G Post-Emergence Protocol; conditions: Amaranthus retroflexus, post-emergence, 312 h
Procedure, shortened: as §2

[12] = test system: velvetleaf (Abutilon theophrasti); assay: Test G Post-Emergence Protocol; conditions: Abutilon theophrasti, post-emergence, 312 h
Procedure, shortened: as §2

## CN1C[C@H](c2cccc3c2OC(F)(F)O3)[C@@H](C(=O)Nc2ccccc2F)C1=O (racemic) [Compound 1465]
[1]; 15.625 g ai/ha, read-out: Barnyard grass damage rating (100=total damage to plant; 0=no damage to plant)
  pest or weed control at 15.625 g/ha: 0%
[1]; 62.5 g ai/ha, 100=total damage to plant, 0=no damage to plant, read-out: plant damage rating, Barnyardgrass
  pest or weed control at 62.5 g/ha: 20%
[1]; 250 g ai/ha, read-out: Barnyardgrass damage rating (100=total damage to plant; 0=no damage to plant)
  pest or weed control at 250 g/ha: 70%
[2]; 15.625 g ai/ha, read-out: Corn damage rating (100=total damage to plant; 0=no damage to plant)
  plant injury at 15.625 g/ha: 0%
[2]; 62.5 g ai/ha, 100=total damage to plant, 0=no damage to plant, read-out: plant damage rating, Corn
  plant injury at 62.5 g/ha: 0%
[2]; 250 g ai/ha, read-out: Corn damage rating (100=total damage to plant; 0=no damage to plant)
  plant injury at 250 g/ha: 0%
[3]; 15.625 g ai/ha, read-out: Foxtail, Giant damage rating (100=total damage to plant; 0=no damage to plant)
  pest or weed control at 15.625 g/ha: 30%
[3]; 62.5 g ai/ha, 100=total damage to plant, 0=no damage to plant, read-out: plant damage rating, Foxtail, Giant
  pest or weed control at 62.5 g/ha: 70%
[3]; 250 g ai/ha, read-out: Foxtail, Giant damage rating (100=total damage to plant; 0=no damage to plant)
  pest or weed control at 250 g/ha: 90%
[4]; 15.625 g ai/ha, read-out: Morning-glory, Ivy-leaved damage rating (100=total damage to plant; 0=no damage to plant)
  pest or weed control at 15.625 g/ha: 0%
[4]; 62.5 g ai/ha, 100=total damage to plant, 0=no damage to plant, read-out: plant damage rating, Morningglory, Ivy-leaved
  pest or weed control at 62.5 g/ha: 0%
[4]; 250 g ai/ha, read-out: Morningglory, Ivy-leaved damage rating (100=total damage to plant; 0=no damage to plant)
  pest or weed control at 250 g/ha: 0%
[5]; 15.625 g ai/ha, read-out: Pigweed, Redroot damage rating (100=total damage to plant; 0=no damage to plant)
  pest or weed control at 15.625 g/ha: 0%
[5]; 62.5 g ai/ha, 100=total damage to plant, 0=no damage to plant, read-out: plant damage rating, Pigweed, Redroot
  pest or weed control at 62.5 g/ha: 0%
[5]; 250 g ai/ha, read-out: Pigweed, Redroot damage rating (100=total damage to plant; 0=no damage to plant)
  pest or weed control at 250 g/ha: 0%
[6]; 15.625 g ai/ha, read-out: Velvetleaf damage rating (100=total damage to plant; 0=no damage to plant)
  pest or weed control at 15.625 g/ha: 0%
[6]; 62.5 g ai/ha, 100=total damage to plant, 0=no damage to plant, read-out: plant damage rating, Velvetleaf
  pest or weed control at 62.5 g/ha: 0%
[6]; 250 g ai/ha, read-out: Velvetleaf damage rating (100=total damage to plant; 0=no damage to plant)
  pest or weed control at 250 g/ha: 0%
[7]; 15.625 g ai/ha, evaluated after 13 days (100=total damage to plant; 0=no damage to plant), read-out: Barnyardgrass damage rating
  pest or weed control at 15.625 g/ha: 0%
[7]; 62.5 g ai/ha, evaluated after 13 days, read-out: Barnyardgrass damage rating (100=total damage to plant; 0=no damage to plant)
  pest or weed control at 62.5 g/ha: 10%
[7]; 250 g ai/ha, evaluated after 13 days, read-out: damage to plant, Barnyardgrass (100=total damage to plant; 0=no damage to plant)
  pest or weed control at 250 g/ha: 20%
[8]; 15.625 g ai/ha, evaluated after 13 days (100=total damage to plant; 0=no damage to plant), read-out: Corn damage rating
  plant injury at 15.625 g/ha: 10%
[8]; 62.5 g ai/ha, evaluated after 13 days, read-out: Corn damage rating (100=total damage to plant; 0=no damage to plant)
  plant injury at 62.5 g/ha: 10%
[8]; 250 g ai/ha, evaluated after 13 days, read-out: damage to plant, Corn (100=total damage to plant; 0=no damage to plant)
  plant injury at 250 g/ha: 10%
[9]; 15.625 g ai/ha, evaluated after 13 days (100=total damage to plant; 0=no damage to plant), read-out: Foxtail, Giant damage rating
  pest or weed control at 15.625 g/ha: 0%
[9]; 62.5 g ai/ha, evaluated after 13 days, read-out: Foxtail, Giant damage rating (100=total damage to plant; 0=no damage to plant)
  pest or weed control at 62.5 g/ha: 60%
[9]; 250 g ai/ha, evaluated after 13 days, read-out: damage to plant, Foxtail, Giant (100=total damage to plant; 0=no damage to plant)
  pest or weed control at 250 g/ha: 70%
[10]; 15.625 g ai/ha, evaluated after 13 days (100=total damage to plant; 0=no damage to plant), read-out: Morningglory, Ivy-leaved damage rating
  pest or weed control at 15.625 g/ha: 0%
[10]; 62.5 g ai/ha, evaluated after 13 days, read-out: Morningglory, Ivy-leaved damage rating (100=total damage to plant; 0=no damage to plant)
  pest or weed control at 62.5 g/ha: 0%
[10]; 250 g ai/ha, evaluated after 13 days, read-out: damage to plant, Morningglory, Ivy-leaved (100=total damage to plant; 0=no damage to plant)
  pest or weed control at 250 g/ha: 20%
[11]; 15.625 g ai/ha, evaluated after 13 days (100=total damage to plant; 0=no damage to plant), read-out: Pigweed, Redroot damage rating
  pest or weed control at 15.625 g/ha: 10%
[11]; 62.5 g ai/ha, evaluated after 13 days, read-out: Pigweed, Redroot damage rating (100=total damage to plant; 0=no damage to plant)
  pest or weed control at 62.5 g/ha: 0%
[11]; 250 g ai/ha, evaluated after 13 days, read-out: damage to plant, Pigweed, Redroot (100=total damage to plant; 0=no damage to plant)
  pest or weed control at 250 g/ha: 0%
[12]; 15.625 g ai/ha, evaluated after 13 days (100=total damage to plant; 0=no damage to plant), read-out: Velvetleaf damage rating
  pest or weed control at 15.625 g/ha: 10%
[12]; 62.5 g ai/ha, evaluated after 13 days, read-out: Velvetleaf damage rating (100=total damage to plant; 0=no damage to plant)
  pest or weed control at 62.5 g/ha: 0%
[12]; 250 g ai/ha, evaluated after 13 days, read-out: damage to plant, Velvetleaf (100=total damage to plant; 0=no damage to plant)
  pest or weed control at 250 g/ha: 10%
